Measured values: patent US8299048B2, “Hexahydrocyclopentyl[f]indazole sulfonamides and derivatives thereof as selective glucocorticoid receptor modulators” (Merck Sharp & Dohme Corp., priority 2008, dated 2012)

Biological target: T1, human GR (Homo sapiens, UniProt P04150)
T1 sequence (P04150 1-777): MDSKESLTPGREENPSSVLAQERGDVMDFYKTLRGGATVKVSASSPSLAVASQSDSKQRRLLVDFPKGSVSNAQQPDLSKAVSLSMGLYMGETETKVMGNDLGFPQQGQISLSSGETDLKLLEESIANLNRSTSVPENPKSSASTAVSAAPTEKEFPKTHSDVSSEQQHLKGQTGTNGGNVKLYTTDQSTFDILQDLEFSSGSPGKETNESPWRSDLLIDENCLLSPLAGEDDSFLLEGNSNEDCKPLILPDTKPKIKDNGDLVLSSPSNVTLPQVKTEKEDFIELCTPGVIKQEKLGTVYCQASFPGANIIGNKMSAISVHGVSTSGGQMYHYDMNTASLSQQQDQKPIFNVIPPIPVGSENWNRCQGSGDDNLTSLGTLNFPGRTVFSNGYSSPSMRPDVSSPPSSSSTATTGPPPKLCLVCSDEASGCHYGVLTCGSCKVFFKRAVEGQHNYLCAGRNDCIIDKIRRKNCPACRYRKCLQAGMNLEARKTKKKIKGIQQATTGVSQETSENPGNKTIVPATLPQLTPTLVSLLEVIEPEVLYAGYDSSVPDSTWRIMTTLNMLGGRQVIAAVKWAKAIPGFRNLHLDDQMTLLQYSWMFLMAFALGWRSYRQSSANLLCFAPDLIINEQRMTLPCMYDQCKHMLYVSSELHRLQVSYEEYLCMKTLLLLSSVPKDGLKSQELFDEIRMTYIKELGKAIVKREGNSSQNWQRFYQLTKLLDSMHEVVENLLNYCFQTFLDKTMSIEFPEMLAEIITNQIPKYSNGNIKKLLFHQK
Assay: Trans-Activation Modulation of Glucocorticoid Receptor (GRAMMER), MMTV-LUC reporter, agonist mode
Assay type: cell-based
Design: endogenous in cells
Conditions: for Emax: A549, A549 cells, maximum activity, read-out: Transactivation A549 Cells GRAMMER Emax; for EC50: A549 cells, inflection point, read-out: Transactivation A549 Cells GRAMMER IP
Outline: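 Readout is luciferase from a modified MMTV LTR promoter after 24 h compound exposure alongside 10 nM dexamethasone (100% activity reference), DMSO ≤1%.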

Emax	EC50	Compound
23%	777 nM	C[C@]12Cc3cnn(-c4ccc(F)cc4)c3C=C1CC[C@@H]2CN(CCO)S(=O)(=O)c1ccc(C#N)cc1Cl [Example 60, 2-chloro-4-cyano-N-{[(4αR,5S)-1-(4-fluorophenyl)-4α-methyl-1,4,4α,5,6,7-hexahydrocyclopenta[f]indazol-5-yl]methyl}-N-(2-hydroxyethyl)benezenesulfonamide]
5.8%	417 nM	C[C@]12Cc3cnn(-c4ccc(F)cc4)c3C=C1CC[C@@H]2CN(CCO)S(=O)(=O)c1cccc(Cl)c1Cl [Example 61, 2,3-dichloro-N-{[(4αR,5S)-1-(4-fluorophenyl)-4α-methyl-1,4,4α,5,6,7-hexahydrocyclopenta[f]indazol-5-yl]methyl}-N-(2-hydroxyethyl)benezenesulfonamide]
12.4%	1660 nM	C[C@]12Cc3cnn(-c4ccc(F)cc4)c3C=C1CC[C@@H]2CNS(=O)(=O)Cc1cccnc1 [Example 169, N-{[(4αR,5S)-1-(4-fluorophenyl)-4α-methyl-1,4,4α,5,6,7-hexahydrocyclopenta[f]indazol-5-yl]methyl}-1-pyridin-3-ylmethanesulfonamide]
76%	432 nM	Cc1noc(C)c1S(=O)(=O)N(CC1CCCO1)C[C@H]1CCC2=Cc3c(cnn3-c3ccc(F)cc3)C[C@@]21C (stereo partly drawn) [Example 170, N-{[(4αR,5S)-1-(4-fluorophenyl)-4α-methyl-1,4,4α,5,6,7-hexahydrocyclopenta[f]indazol-5-yl]methyl}-3,5-dimethyl-N-(tetrahydrofuran-2-ylmethyl)isoxazole-4-sulfonamide]
71.3%	287 nM	CCS(=O)(=O)N(CCOC)C[C@H]1CCC2=Cc3c(cnn3-c3ccc(F)cc3)C[C@@]21C [Example 171, N-{[(4αR,5S)-1-(4-fluorophenyl)-4α-methyl-1,4,4α,5,6,7-hexahydrocyclopenta[f]indazol-5-yl]methyl}-N-(2-methoxyethyl)ethanesulfonamide]
10.7%	398 nM	COCCN(C[C@H]1CCC2=Cc3c(cnn3-c3ccc(F)cc3)C[C@@]21C)S(=O)(=O)c1cn(C)nc1C(F)(F)F [Example 172, N-{[(4αR,5S)-1-(4-fluorophenyl)-4α-methyl-1,4,4α,5,6,7-hexahydrocyclopenta[f]indazol-5-yl]methyl}-N-(2-methoxyethyl)-1-methyl-3-(trifluoromethyl)-1H-pyrazole-4-sulfonamide]
70.4%	364 nM	COCCN(C[C@H]1CCC2=Cc3c(cnn3-c3ccc(F)cc3)C[C@@]21C)S(=O)(=O)c1c(C)noc1C [Example 173, N-{[(4αR,5S)-1-(4-fluorophenyl)-4α-methyl-1,4,4α,5,6,7-hexahydrocyclopenta[f]indazol-5-yl]methyl}-N-(2-methoxyethyl)-3,5-dimethylisoxazole-4-sulfonamide]
81.1%	527 nM	CCS(=O)(=O)N(CC1CCCO1)C[C@H]1CCC2=Cc3c(cnn3-c3ccc(F)cc3)C[C@@]21C (stereo partly drawn) [Example 174, N-{[(4αR,5S)-1-(4-fluorophenyl)-4α-methyl-1,4,4α,5,6,7-hexahydrocyclopenta[f]indazol-5-yl]methyl}-N-(tetrahydrofuran-2-ylmethyl)ethanesulfonamide]
22.7%	381 nM	Cn1cc(S(=O)(=O)N(CC2CCCO2)C[C@H]2CCC3=Cc4c(cnn4-c4ccc(F)cc4)C[C@@]32C)c(C(F)(F)F)n1 (stereo partly drawn) [Example 175, N-{[(4αR,5S)-1-(4-fluorophenyl)-4α-methyl-1,4,4α,5,6,7-hexahydrocyclopenta[f]indazol-5-yl]methyl}-1-methyl-N-(tetrahydrofuran-2-ylmethyl)-3-(trifluoromethyl)-1H-pyrazole-4-sulfonamide]
56.9%	246 nM	Cc1noc(C)c1S(=O)(=O)N(C)C[C@H]1CCC2=Cc3c(cnn3-c3ccc(F)cc3)C[C@@]21C [Example 176, N-{[(4αR,5S)-1-(4-fluorophenyl)-4α-methyl-1,4,4α,5,6,7-hexahydrocyclopenta[f]indazol-5-yl]methyl}-N,3,5-trimethylisoxazole-4-sulfonamide]
67.3%	169 nM	CN(C[C@H]1CCC2=Cc3c(cnn3-c3ccc(F)cc3)C[C@@]21C)S(=O)(=O)CC(F)(F)F [Example 177, 2,2,2-trifluoro-N-{[(4αR,5S)-1-(4-fluorophenyl)-4α-methyl-1,4,4α,5,6,7-hexahydrocyclopenta[f]indazol-5-yl]methyl}-N-methylethanesulfonamide]
55%	110 nM	CCN(C[C@H]1CCC2=Cc3c(cnn3-c3ccc(F)cc3)C[C@@]21C)S(=O)(=O)c1c(C)noc1C [Example 178, N-ethyl-N-{[(4αR,5S)-1-(4-fluorophenyl)-4α-methyl-1,4,4α,5,6,7-hexahydrocyclopenta[f]indazol-5-yl]methyl}-3,5-dimethylisoxazole-4-sulfonamide]
65.4%	277 nM	CCN(C[C@H]1CCC2=Cc3c(cnn3-c3ccc(F)cc3)C[C@@]21C)S(=O)(=O)CC(F)(F)F [Example 179, N-ethyl-2,2,2-trifluoro-N-{[(4αR,5S)-1-(4-fluorophenyl)-4α-methyl-1,4,4α,5,6,7-hexahydrocyclopenta[f]indazol-5-yl]methyl}ethanesulfonamide]
38.1%	247 nM	COC(=O)c1ccccc1CS(=O)(=O)N(C[C@H]1CCC2=Cc3c(cnn3-c3ccc(F)cc3)C[C@@]21C)C[C@@H](C)O [Example 180, methyl 2-[({{[(4αR,5S)-1-(4-fluorophenyl)-4α-methyl-1,4,4α,5,6,7-hexahydrocyclopenta[f]indazol-5-yl]methyl}[(2R)-2-hydroxypropyl]amino}sulfonyl)methyl]benzoatee]
54.6%	364 nM	COC(=O)c1ccccc1CS(=O)(=O)N(C[C@H]1CCC2=Cc3c(cnn3-c3ccc(F)cc3)C[C@@]21C)C[C@H](C)O [Example 181, methyl 2-[({{[(4αR,5S)-1-(4-fluorophenyl)-4α-methyl-1,4,4α,5,6,7-hexahydrocyclopenta[f]indazol-5-yl]methyl}[(2S)-2-hydroxypropyl]amino}sulfonyl)methyl]benzoate]
8%	4760 nM	C[C@@H](O)CN(C[C@H]1CCC2=Cc3c(cnn3-c3ccc(F)cc3)C[C@@]21C)S(=O)(=O)Cc1ccccc1C(=O)O [Example 182, 2-[({{[(4αR,5S)-1-(4-fluorophenyl)-4α-methyl-1,4,4α,5,6,7-hexahydrocyclopenta[f]indazol-5-yl]methyl}[(2R)-2-hydroxypropyl]amino}sulfonyl)methyl]benzoic acid]
15%	4500 nM	C[C@H](O)CN(C[C@H]1CCC2=Cc3c(cnn3-c3ccc(F)cc3)C[C@@]21C)S(=O)(=O)Cc1ccccc1C(=O)O [Example 183, 2-[({{[(4αR,5S)-1-(4-fluorophenyl)-4α-methyl-1,4,4α,5,6,7-hexahydrocyclopenta[f]indazol-5-yl]methyl}[(2S)-2-hydroxypropyl]amino}sulfonyl)methyl]benzoic acid]
21.6%	422 nM	C[C@@H](O)CN(C[C@H]1CCC2=Cc3c(cnn3-c3ccc(F)cc3)C[C@@]21C)S(=O)(=O)Cc1ccccc1C(N)=O [Example 184, 2-[({{[(4αR,5S)-1-(4-fluorophenyl)-4α-methyl-1,4,4α,5,6,7-hexahydrocyclopenta[f]indazol-5-yl]methyl}[(2R)-2-hydroxypropyl]amino}sulfonyl)methyl]benzamide]
19.9%	250 nM	C[C@H](O)CN(C[C@H]1CCC2=Cc3c(cnn3-c3ccc(F)cc3)C[C@@]21C)S(=O)(=O)Cc1ccccc1C(N)=O [Example 185, 2-[({{[(4αR,5S)-1-(4-fluorophenyl)-4α-methyl-1,4,4α,5,6,7-hexahydrocyclopenta[f]indazol-5-yl]methyl}[(2S)-2-hydroxypropyl]amino}sulfonyl)methyl]benzamide]
35.8%	509 nM	COC(=O)c1ccccc1S(=O)(=O)N(C[C@H]1CCC2=Cc3c(cnn3-c3ccc(F)cc3)C[C@@]21C)C[C@@H](C)O [Example 186, methyl 2-({{[(4αR,5S)-1-(4-fluorophenyl)-4α-methyl-1,4,4α,5,6,7-hexahydrocyclopenta[f]indazol-5-yl]methyl}[(2R)-2-hydroxypropyl]amino}sulfonyl)benzoate]
35.8%	357 nM	COC(=O)c1ccccc1S(=O)(=O)N(C[C@H]1CCC2=Cc3c(cnn3-c3ccc(F)cc3)C[C@@]21C)C[C@H](C)O [Example 187, methyl 2-({{[(4αR,5S)-1-(4-fluorophenyl)-4α-methyl-1,4,4α,5,6,7-hexahydrocyclopenta[f]indazol-5-yl]methyl}[(2S)-2-hydroxypropyl]amino}sulfonyl)benzoate]
